Ends that are not written are not given here. * marks the point of attachment. Cam = NC(=O)C*
System: NOD mouse
Test: Rate of type 1 diabetes and final blood glucose in treated female NOD/ShiLtJ mice
Assay type: in vivo
Procedure: Mouse care: NOD/ShiLtJ mice were from The Jackson Laboratory (Bar Harbor, ME, USA). Mice were housed under standard conditions (20-24° C., humidity 30-70%, lighting regimen 12 h light/12 h dark) in the University of Wisconsin Biomedical Research Model Service that is a specific pathogen free level 1 facility. […] Mice had access to acidified water or water containing a chemical and/or green tea ad libitum. All procedures were approved by the Research Animal Resources and Compliance veterinary care authority of the University of Wisconsin, Madison.
Mouse treatments: Mice were given chemicals by intraperitoneal injection and/or by gavage and/or in drinking water. Water-soluble chemicals were administered in a solution of sodium chloride adjusted to have a final osmolality of 0.5-0.9%. Lipid soluble chemicals were dissolved in olive oil, peanut oil, corn oil, Mazola® oil or canola oil.
Starting at age 2 to 5 days mice were given injections on every third or fourth day for 2 to 4 weeks (usually 2 to 2.5 weeks) for the first 4 or 6 injections, and thereafter twice per week on Mondays and Thursdays until up to age 100 days. In some instances, pregnant and nursing mice were given chemicals in drinking water starting at about the middle or late pregnancy continuing during nursing and also continuing for various lengths of time to the offspring with or without additional intraperitoneal injections of chemicals. In other instances, chemicals were delivered by intraperitoneal injection into pregnant mice and continued after delivery into the mouse pups. Chemicals, for example EGCG, were also delivered in drinking water starting before birth to the pregnant mouse mother and/or continuing and/or starting ad libitum to the mice after birth usually until at least 100 days of age or throughout life.
Chemicals given in distilled drinking water were green tea (as a source of EGCG and other catechins) (Lipton® 100% Natural Green Tea). […] The tea water was given alone and also in combination with acetaminophen 2 g/l in the same water.
In most cases nondiabetic mice were euthanized at 40-41 weeks of age. Statistical significances of the frequencies of diabetes in the mice receiving test treatments were compared to the rates of diabetes in mice receiving control treatments and were calculated with the Chi square test and with the Chi square test with Yate's correction.
In most of the studies, control solutions and the other treatments were administered to the mice until they were 100 days old. Mice without diabetes were euthanized at 40-41 weeks of age. Diabetic mice were euthanized when their blood glucose levels reached a level that met the criteria for diabetes.
Administration of water-soluble chemicals serving as controls to NOD mice: Control solutions were the vehicles in which chemicals were dissolved. Control solutions were usually administered to mouse litters from the same shipments as the litters receiving test chemicals and/or litters from the same parents as the litters receiving test chemicals and were administered during the same month and year as treatments to the litters receiving test treatments. Statistical probabilities between the rates of diabetes in the litters receiving test treatments were compared to litters simultaneously receiving control treatments.

[1] = quercetin 200 μmol/kg IP in olive oil, age 40 weeks
[2] = quercetin 200 μmol/kg IP in peanut oil
[3] = 1500 μmol/kg in olive oil, IP til wean (21 days), then gavage until 98 days, age 40 weeks
[4] = 2000 μmol/kg IP in olive oil, age 40 weeks
[5] = 200 μmol/kg in ¾ saline, IP til wean (21 days), then gavage until 55-62 days, age 35 weeks
[6] = 200 μmol/kg IP in saline, age 40 weeks
[7] = 20 ug once per week for first 3 weeks, then 40 μg once per week until 100-110 days, IP in 5% DMSO/95% saline, age 40 weeks
[8] = 40 μg twice/week for two weeks then once per week until 14 weeks old, IP in 5% DMSO/95% saline
[9] = 20 ug, then 40 μg after 3 weeks, IP in 5% DMSO/95% saline

With `O=c1c(O)c(-c2ccc(O)c(O)c2)oc2cc(O)cc(O)c12` [Quercetin] the “Diabetes (%)” value [1] was 26%, the “Final Blood Glucose (mean ± SE) diabetic” value [1] was 610 ± 56 mg glucose/dl and the “Final Blood Glucose (mean ± SE) non-diabetic” value [1] was 178 ± 7 mg glucose/dl. For the same molecule, the “Diabetes (%)” value [2] was 47%, the “Final Blood Glucose (mean ± SE) diabetic” value [2] was 651 ± 25 mg glucose/dl and the “Final Blood Glucose (mean ± SE) non-diabetic” value [2] was 171 ± 11 mg glucose/dl.

`CC1=C(C=O)C(C)(C)CC=C1` [Safranal, 2,6,6-Trimethylcyclohexa-1,3-diene-1-carbaldehyde] was tested, and the “Diabetes (%)” value [3] was 36%, the “Final Blood Glucose (mean ± SE) diabetic” value [3] was 595 ± 36 mg glucose/dl and the “Final Blood Glucose (mean ± SE) non-diabetic” value [3] was 172 ± 8 mg glucose/dl. The “Diabetes (%)” value [4] was 32%, the “Final Blood Glucose (mean ± SE) diabetic” value [4] was 606 ± 60 mg glucose/dl and the “Final Blood Glucose (mean ± SE) non-diabetic” value [4] was 159 ± 5 mg glucose/dl.

`C[S+]([O-])CCCCN=C=S` (stereo not drawn) [Sulforaphane, 1-Isothiocyanato-4-(methanesulfinyl)butane] was tested, and the “Diabetes (%)” value [5] was 42%, the “Final Blood Glucose (mean ± SE) diabetic” value [5] was 619 ± 37 mg glucose/dl and the “Final Blood Glucose (mean ± SE) non-diabetic” value [5] was 154 ± 7 mg glucose/dl.

`CC(S)C(=O)NCC(=O)O` (stereo not drawn) [Tiopronin, reference compound] was tested, and the “Diabetes (%)” value [6] was 74%, the “Final Blood Glucose (mean ± SE) diabetic” value [6] was 685 ± 19 mg glucose/dl and the “Final Blood Glucose (mean ± SE) non-diabetic” value [6] was 175 ± 12 mg glucose/dl.

“SHLVEALYLVCGEEG (SHLVEALYLVC(Cam)GEEG) [Ins B9-23 19CAM22R-E, insulin B chain 9-23 mimotope peptide treated with iodoacetamide to carboxyamidomethylate the cysteine residue at position 19]” was tested, and the “Diabetes (%)” value [7] was 17%, the “Final Blood Glucose (mean ± SE) diabetic” value [7] was 681 ± 82 mg glucose/dl and the “Final Blood Glucose (mean ± SE) non-diabetic” value [7] was 159 ± 6 mg glucose/dl.

For “VEALYLVCEGEEG (VEALYLVC(Cam)EGEEG) [Ins B12-23 19CAM22R-E, insulin B12-23 mimotope peptide treated with iodoacetamide to carboxyamidomethylate the cysteine residue]”, the “Diabetes (%)” value [8] was 54%, the “Final Blood Glucose (mean ± SE) diabetic” value [8] was 569 ± 70 mg glucose/dl and the “Final Blood Glucose (mean ± SE) non-diabetic” value [8] was 166 ± 7 mg glucose/dl.

“VEALYLVCGERG (VEALYLVC(Cam)GERG) [Ins B12-23 19CAM]” was tested, and the “Diabetes (%)” value [9] was 47%, the “Final Blood Glucose (mean ± SE) diabetic” value [9] was 679 ± 32 mg glucose/dl and the “Final Blood Glucose (mean ± SE) non-diabetic” value [9] was 160 ± 6 mg glucose/dl.

From patent US20260053902A1, “COMPOSITIONS AND METHODS FOR REDUCING THE RATE OF TYPE 1 DIABETES” (Wisconsin Alumni Research Foundation, priority 2023, published 2026)
